Assay [1] addresses T1, WDR5 (Homo sapiens, UniProt P61964). Nature of the assay: Surface Plasmon Resonance (SPR) assay. The format is binding. Also noted: Full length WDR5 with an N-terminal His tag and C-terminal AviTag; His tag (N); made in house; host or cells: E. coli. To be noted: read-out: SPR Kd. Summed up: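 Full-length biotinylated WDR5 (N-His, C-AviTag, E. coli) captured (~3000 RU) on streptavidin SA chip; Biacore T200. HBS-EP pH 7.4 plus 5% DMSO running buffer, 40 μl/min.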

Another assay relates to MV4-11 cells. Nature of the assay: Cell proliferation assay (ATPlite). The format is cell-based. To be noted: Homo sapiens, 120 h; MV4-11 cells, five days; read-out: GI MV411 EC50. Put shortly:
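Cells seeded at 1,000/well in Alpha-MEM with 10% FBS, treated with compound over a 10-point range (top 10 μM) or DMSO. Grown five days at 37° C, 5% CO2; viability by ATPlite luminescence.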
A general note: In ATP-based viability assays light output follows the ATP content of the culture.

For assay [2], the target named is T1, WDR5. Nature of the assay: Fluorescence Polarization (FP) binding assay. Summed up:
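Displacement of fluorescein-labelled H3 (1-15) (30 nM, with 0.3 μM WDR5) or 9-Ala-FAM (20 nM, with 0.05 μM WDR5) in 80 mM sodium phosphate pH 6.5, 20 mM KCl, 0.008% Triton X-100. FP read at 485/528 nm (H3) or 480/540 nm (9-Ala-FAM); Kdisp from hyperbolic fit, mean of quadruplicates.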

pEC50, pIC50, pKd: −log10 of the molar value.

On to `C[C@@H]1CN(c2cc(F)c(-c3ccc(OC4CCOCC4)nc3)c(F)c2NC(=O)c2c[nH]c(=O)cc2C(F)(F)F)C[C@H](C)N1C` [Example 65, N-(2,4-difluoro-3-(6-((tetrahydro-2H-pyran-4-yl)oxy)pyridin-3-yl)-6-((3S,5R)-3,4,5-trimethylpiperazin-1-yl)phenyl)-6-oxo-4-(trifluoromethyl)-1,6-dihydropyridine-3-carboxamide], for which, at WDR5 [1], the pKd – broadly, −log10 of the Kd, conventionally taken in molar units – was 8.82. For the same compound, the negative logarithm of the EC50 (pEC50) (as a rule, −log10 of the EC50, conventionally taken in molar units) in the assay on MV4-11 cells is 7.47. Besides, the pIC50 (usually the negative decadic logarithm of the IC50, by convention in mol/L) on WDR5 [2] was 7.99.
For `C[C@H]1CN(c2cc(F)c(C3=CCN(c4ccnc(C#N)n4)C3)c(F)c2NC(=O)c2c[nH]c(=O)cc2C(F)F)CCN1C` [Example 106, (S)—N-(3-(1-(2-cyanopyrimidin-4-yl)-2,5-dihydro-1H-pyrrol-3-yl)-6-(3,4-dimethylpiperazin-1-yl)-2,4-difluorophenyl)-4-(difluoromethyl)-6-oxo-1,6-dihydropyridine-3-carboxamide], the pKd on WDR5 [1] was 9.03. Besides, the pEC50 in the assay with MV4-11 cells is 7.56. The pIC50 on WDR5 [2] was 7.82.
In the same order, the values of `C[C@H]1CN(c2cc(F)c(C3=CCCN(c4ccnc(C#N)n4)C3)c(F)c2NC(=O)c2c[nH]c(=O)cc2C(F)(F)F)CCN1C` [Example 114, (S)—N-(3-(1-(2-cyanopyrimidin-4-yl)-1,2,5,6-tetrahydropyridin-3-yl)-6-(3,4-dimethylpiperazin-1-yl)-2,4-difluorophenyl)-6-oxo-4-(trifluoromethyl)-1,6-dihydropyridine-3-carboxamide] are 8.62, 7.44 and 7.80.
For the compound `COc1cnc(N2CC=C(c3c(F)cc(N4CCN(C)[C@@H](C)C4)c(NC(=O)c4c[nH]c(=O)cc4C(F)(F)F)c3F)CC2)nc1` [Example 53, (S)—N-(6-(3,4-dimethylpiperazin-1-yl)-2,4-difluoro-3-(1-(5-methoxypyrimidin-2-yl)-1,2,3,6-tetrahydropyridin-4-yl)phenyl)-6-oxo-4-(trifluoromethyl)-1,6-dihydropyridine-3-carboxamide], the pKd at WDR5 [1] is 8.99. In the assay on MV4-11 cells, the pEC50 is 7.12. Also, the pIC50 on WDR5 [2] is 7.71.
As to `CC(C)[C@H]1CN(c2ncc(-c3c(F)cc(N4CCN(C)[C@@H](C)C4)c(NC(=O)c4c[nH]c(=O)cc4C(F)(F)F)c3F)cn2)CCO1` [Example 102, N-(6-((S)-3,4-dimethylpiperazin-1-yl)-2,4-difluoro-3-(2-((S)-2-isopropylmorpholino)pyrimidin-5-yl)phenyl)-6-oxo-4-(trifluoromethyl)-1,6-dihydropyridine-3-carboxamide], the pKd on WDR5 [1] was 9.36. Further, the pEC50 in the assay with MV4-11 cells was 7.84. For the same compound, the negative-log IC50 (pIC50) on WDR5 [2] was 7.93.
In the same order, the values of `C[C@H]1CN(c2cc(F)c(C3=CCCN(C(=O)OC4CC(F)(F)C4)C3)c(F)c2NC(=O)c2c[nH]c(=O)cc2C(F)(F)F)CCN1C` [Example 46, 3,3-Difluorocyclobutyl (S)-5-(4-(3,4-dimethylpiperazin-1-yl)-2,6-difluoro-3-(6-oxo-4-(trifluoromethyl)-1,6-dihydropyridine-3-carboxamido)phenyl)-3,6-dihydropyridine-1(2H)-carboxylate] are 8.53, 6.22 and 7.83.
For the compound `C[C@@H]1CN(c2nccc(-c3c(F)cc(N4CCN(C)[C@@H](C)C4)c(NC(=O)c4ccc(F)cc4C(F)F)c3F)n2)C[C@H](C)O1` [Example 32, 2-(Difluoromethyl)-N-(3-(2-((2S,6R)-2,6-dimethylmorpholino)pyrimidin-4-yl)-6-((S)-3,4-dimethylpiperazin-1-yl)-2,4-difluorophenyl)-4-fluorobenzamide Formic Acid], at WDR5 [1], the negative-log Kd (pKd) is 8.29. In addition, the pEC50 in the assay with MV4-11 cells was 6.54. Also, the pIC50 on WDR5 [2] is 7.48.
Consider `C[C@H]1CN(c2ncc(-c3c(F)cc(N4CCN(C)[C@@H](C)C4)c(NC(=O)c4c[nH]c(=O)cc4C(F)(F)F)c3F)cn2)CCO1` [Example 60, N-(6-((S)-3,4-dimethylpiperazin-1-yl)-2,4-difluoro-3-(2-((S)-2-methylmorpholino)pyrimidin-5-yl)phenyl)-6-oxo-4-(trifluoromethyl)-1,6-dihydropyridine-3-carboxamide], for which the negative-log Kd (pKd) on WDR5 [1] was 8.90. Also, the pEC50 with MV4-11 cells is 7.94. The negative logarithm of the IC50 (pIC50) on WDR5 [2] was 7.96.
Consider `C[C@@H]1CN(c2ncc(-c3c(F)cc(N4CCN(C)[C@@H](C)C4)c(NC(=O)c4c[nH]c(=O)cc4C(F)F)c3F)cn2)C[C@H](C)O1` [Example 33, 4-(Difluoromethyl)-N-(3-(2-((2S,6R)-2,6-dimethylmorpholino)pyrimidin-5-yl)-6-((S)-3,4-dimethylpiperazin-1-yl)-2,4-difluorophenyl)-6-oxo-1,6-dihydropyridine-3-carboxamide], for which the pKd on WDR5 [1] was 9.21. Besides, the pEC50 in the assay with MV4-11 cells is 7.84. Further, the pIC50 at WDR5 [2] was 7.83.
In the same order, the values of `COc1cc(N2CC=C(c3c(F)cc(N4CCN(C)[C@@H](C)C4)c(NC(=O)c4c[nH]c(=O)cc4C(F)F)c3F)CC2)ncn1` [Example 67, (S)-4-(difluoromethyl)-N-(6-(3,4-dimethylpiperazin-1-yl)-2,4-difluoro-3-(1-(6-methoxypyrimidin-4-yl)-1,2,3,6-tetrahydropyridin-4-yl)phenyl)-6-oxo-1,6-dihydropyridine-3-carboxamide] are 9.01, 7.00 and 7.70.
Take `C[C@@H]1CN(c2cc(F)c(-c3ccc(F)c(C(N)=O)c3)c(F)c2NC(=O)c2c[nH]c(=O)cc2C(F)(F)F)C[C@H](C)N1C` [Example 28, N-(3′-carbamoyl-2,4′,6-trifluoro-4-((3S,5R)-3,4,5-trimethylpiperazin-1-yl)-[1,1′-biphenyl]-3-yl)-6-oxo-4-(trifluoromethyl)-1,6-dihydropyridine-3-carboxamide]: the pKd at WDR5 [1] was 8.30. In the assay on MV4-11 cells, the pEC50 is 5.54. The negative-log IC50 (pIC50) at WDR5 [2] was 7.44.
As for `COc1cnc(N2CC=C(c3c(F)cc(N4C[C@@H](C)N(C)[C@@H](C)C4)c(NC(=O)c4c[nH]c(=O)cc4C(F)(F)F)c3F)CC2)nc1` [Example 137, N-(2,4-difluoro-3-(1-(5-methoxypyrimidin-2-yl)-1,2,3,6-tetrahydropyridin-4-yl)-6-((3S,5R)-3,4,5-trimethylpiperazin-1-yl)phenyl)-6-oxo-4-(trifluoromethyl)-1,6-dihydropyridine-3-carboxamide], on WDR5 [1], the negative-log Kd (pKd) is 8.59. The pEC50 in the assay with MV4-11 cells was 7.12. Besides, at WDR5 [2], the pIC50 is 7.77.

The values are drawn from US20200385371A1 (Propellon Therapeutics Inc., priority 2017, published 2020).
